Reference: the METLIN SMRT retention time set (Domingo-Almenara et al. 2019)

Test: gradient 5% acetonitrile 3 min, to 50% in 2 min, to 85% in 15 min, held 3 min, 100 µL/min
Conditions: column: Zorbax Extend-C18 2.1 x 50 mm; eluents: water / acetonitrile, 0.1% formic acid
Summary of the method: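 Using water and acetonitrile that each contained 0.1% formic acid, mixtures of ~100 pure standards were separated at 100 μL/min on a Zorbax Extend-C18 column (2.1 × 50 mm, 1.8 μm). The HPLC fed a quadrupole time-of-flight mass spectrometer working in positive and negative ionization mode, with dead and dwell volumes of 40 μL and 900 μL. Data were acquired over 3 months. Retention time was read from computationally picked adduct peaks after manual inspection of each.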

RP-LC retention time | SMILES
587 s | CCCC(=O)Nc1ccc(-c2cn3ccc(C)nc3n2)cc1
858 s | CCC(C)NC(=O)c1cn(-c2ncccc2-c2nc(-c3ccccc3)no2)cn1 (configuration not stated)
674 s | COc1ccc(Nc2c(-c3ccc(N4CCOCC4)cc3)nc3cnccn23)cc1OC
715 s | CN1CCN(C(=O)Cn2cccc2-c2nc(-c3ccc(Cl)cc3)cs2)CC1
759 s | O=C(Nc1ccc2c(c1)OCO2)C1CCCN(c2ncnc3c2nc2n3CCCCC2)C1 (configuration not stated)
745 s | CCOc1cc(C(=O)NC(C)C(=O)Nc2nc3ccccc3[nH]2)cc(OCC)c1OCC (configuration not stated)
705 s | COCC(=O)NC1CCN(c2ccc(C)c(C)c2)C1=O (configuration not stated)
557 s | O=C(c1ccsc1)N1CCC2(CC1)CC(N1CCOCC1)CCO2 (configuration not stated)
886 s | COc1ccc(-c2noc(C3CC(=O)N(c4ccc5c(c4)OCO5)C3)n2)cc1OC (configuration not stated)
786 s | Cc1ccc([N+](=O)[O-])cc1NC(=O)Nc1ccc(S(N)(=O)=O)cc1
654 s | Oc1c(C(Nc2nccs2)c2ccc(F)cc2)ccc2cccnc12 (configuration not stated)
720 s | CN1CCN(S(=O)(=O)c2c[nH]c(=O)[nH]c2=O)CC1
1090 s | O=C(NCCCc1ccccc1)C1CCCN(c2nccnc2Sc2ccccc2)C1 (configuration not stated)
587 s | O=NN(CCCl)C(=O)NCc1ccc[n+]([O-])c1
916 s | Cc1sc(-c2nnc(C3CC3)o2)cc1NC(=O)c1n[nH]c2c1CCCC2
714 s | Cc1nnc(N2CCCC(C(=O)NCCCOC(C)C)C2)c2nn(-c3ccc(Cl)cc3)c(C)c12 (configuration not stated)
1020 s | CCOc1ccc(-c2ccc(=O)n(CCc3nc(-c4cc(OC)cc(OC)c4)no3)n2)cc1
697 s | Cc1ccc(-c2noc(C3CC3)n2)cc1S(=O)(=O)N1CCC(C(=O)N2CCOCC2)CC1

Continued, compound first:

SMILES | RP-LC retention time
COCCNC(=O)CCc1c(-c2ccc(Cl)cc2)nc2ccccn12 | 590 s
COc1ccc(OCc2noc(CNC(=O)c3oc4cc(OC)ccc4c3C)n2)cc1 | 925 s
Cc1cccc(-c2nc3nc(C)cc(N(CCO)Cc4ccccc4)n3n2)c1 | 815 s
CCn1c(=O)cc(OCC(=O)N2CCN(c3ccccn3)CC2)c2ccccc21 | 584 s
CC(C)N1C(=O)C(C)(C(=O)Nc2cccc(F)c2)Oc2cccnc21 (configuration not stated) | 1020 s
CCc1cccc(N2C(=O)CN(S(=O)(=O)CC)CC2(C)C(=O)NCc2ccccc2)c1 (configuration not stated) | 856 s
O=C(O)c1ccc2c(c1)n(Cc1ccc(F)cc1)c(=O)c1ccnn12 | 793 s
CN1C(=O)c2cc(C(=O)NCc3ccccc3F)nn2CC1(C)C(=O)NC1CCCCCC1 (configuration not stated) | 839 s
Cc1cc(C(=O)N2CCN(c3ccccc3Cl)CC2)nc2ccnn12 | 875 s
O=C(NC1CCCCCC1)C1CCN(C(=O)c2ncn3c2COC(c2ccc(Cl)cc2)C3)CC1 (configuration not stated) | 900 s
CCOC(=O)C1C(=O)NC(SC)=C(C#N)C1c1ccccc1[N+](=O)[O-] (configuration not stated) | 778 s
CCN1CCCCc2cc(C(=O)N(C)CCN(C)C)sc21 | 638 s
COCCNS(=O)(=O)c1cc(-c2nc(CC(C)C)cs2)cs1 | 1010 s
Cc1ccc(N2CCC(NC(=O)Nc3cc(C)cc(C)c3)C2=O)cc1 (configuration not stated) | 931 s
CC(C)Cn1cc(CCNC(=O)c2ccc(F)cc2F)c2cccnc21 | 834 s
Cc1ccccc1C1CCCN1C(=O)c1c(Cl)cnn1C (configuration not stated) | 892 s
Cc1ccccc1CNC(=O)C1(C)Oc2cccnc2NC1=O (configuration not stated) | 702 s
CC(=O)N1CCC2(CC1)CC(=O)c1ccc(O)c(O)c1O2 | 585 s
COc1ccc(Cl)cc1S(=O)(=O)NCc1cccnc1-c1cccc(C)c1 | 771 s
